Results from patent publication US7601716B2, “Pyridopyrazines and derivatives thereof as ALK and c-Met inhibitors” (Cephalon, Inc., priority 2006, dated 2009).

Target: baculovirus-expressed ALK (Homo sapiens, UniProt Q9UM73)
Experiment: ALK Kinase Assay (ELISA/TRF, PLC-γ substrate); note: 1 µM ATP (Km level)
Assay type: biochemical
Conditions: read-out: ALK Kinase Inhibition (IC50)
Procedure, shortened: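 Plates coated with GST–PLC-γ fusion substrate (10 μg/mL in TBS); reaction started with 30 ng/ml ALK, run 15 minutes at 37° C. Phosphotyrosine detected by Eu-N1 PT66 antibody (1 hour, 37° C) and time-resolved fluorescence after enhancement. IC50 from sigmoidal variable-slope fit of percent inhibition versus log concentration.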

Chain of baculovirus-expressed ALK (Q9UM73 19-1620): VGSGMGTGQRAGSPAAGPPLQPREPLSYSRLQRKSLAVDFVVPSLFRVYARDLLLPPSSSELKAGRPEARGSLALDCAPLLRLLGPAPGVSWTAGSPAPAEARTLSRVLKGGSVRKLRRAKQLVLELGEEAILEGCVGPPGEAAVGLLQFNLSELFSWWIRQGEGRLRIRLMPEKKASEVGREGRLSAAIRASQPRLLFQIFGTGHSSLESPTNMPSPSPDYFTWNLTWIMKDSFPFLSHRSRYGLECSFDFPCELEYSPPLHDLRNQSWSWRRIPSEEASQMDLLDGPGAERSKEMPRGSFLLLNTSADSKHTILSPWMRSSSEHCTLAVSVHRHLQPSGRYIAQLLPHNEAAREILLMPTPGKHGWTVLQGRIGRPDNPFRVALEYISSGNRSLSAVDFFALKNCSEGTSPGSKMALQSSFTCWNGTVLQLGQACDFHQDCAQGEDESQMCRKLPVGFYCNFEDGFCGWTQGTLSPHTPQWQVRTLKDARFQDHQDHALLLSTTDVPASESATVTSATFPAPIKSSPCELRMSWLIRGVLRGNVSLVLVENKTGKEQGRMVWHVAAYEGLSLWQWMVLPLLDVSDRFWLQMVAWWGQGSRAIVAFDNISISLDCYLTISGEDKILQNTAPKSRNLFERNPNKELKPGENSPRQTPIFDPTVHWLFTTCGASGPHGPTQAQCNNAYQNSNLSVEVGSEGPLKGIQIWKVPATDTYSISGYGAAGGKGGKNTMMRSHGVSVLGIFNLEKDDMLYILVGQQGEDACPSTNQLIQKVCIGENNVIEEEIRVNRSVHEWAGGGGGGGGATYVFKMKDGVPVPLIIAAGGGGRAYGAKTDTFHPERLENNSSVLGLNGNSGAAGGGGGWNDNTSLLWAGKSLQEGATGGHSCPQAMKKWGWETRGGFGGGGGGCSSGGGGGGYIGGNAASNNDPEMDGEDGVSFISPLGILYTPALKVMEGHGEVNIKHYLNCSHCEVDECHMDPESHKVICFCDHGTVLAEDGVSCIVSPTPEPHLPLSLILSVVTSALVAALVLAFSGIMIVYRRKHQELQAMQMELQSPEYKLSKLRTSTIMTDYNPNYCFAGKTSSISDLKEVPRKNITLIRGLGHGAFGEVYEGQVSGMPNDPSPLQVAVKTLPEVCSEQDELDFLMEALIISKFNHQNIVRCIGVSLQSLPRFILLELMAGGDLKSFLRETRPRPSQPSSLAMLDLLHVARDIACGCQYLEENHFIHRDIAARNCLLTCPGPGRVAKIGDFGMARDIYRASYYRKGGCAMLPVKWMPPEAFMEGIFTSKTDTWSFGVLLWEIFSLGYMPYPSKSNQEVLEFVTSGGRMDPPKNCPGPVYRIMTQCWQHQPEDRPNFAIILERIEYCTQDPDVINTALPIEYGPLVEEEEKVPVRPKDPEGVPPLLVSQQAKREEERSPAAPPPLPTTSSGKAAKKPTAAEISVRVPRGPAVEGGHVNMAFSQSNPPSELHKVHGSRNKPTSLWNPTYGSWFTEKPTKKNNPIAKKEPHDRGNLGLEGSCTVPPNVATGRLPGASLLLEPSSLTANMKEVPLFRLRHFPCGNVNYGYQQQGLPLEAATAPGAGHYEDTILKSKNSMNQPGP

IC50 [nM]	SMILES
100 to 1000	O=C(c1ccc(-c2cnc3c(c2)N(Cc2cc(Cl)ccc2C(F)(F)F)CCN3)cc1)N1CCC(c2c[nH]c3ccccc23)CC1 [Example 376, (4-{1-[5-Chloro-2-(trifluoromethyl)benzyl]-1,2,3,4-tetrahydropyrido[2,3-b]pyrazin-7-yl}phenyl)-[4-(1H-indol-3-yl)piperidin-1-yl]methanone]
1000 to 10000	O=C(c1ccc(-c2cnc3c(c2)N(Cc2cc(Cl)ccc2C(F)(F)F)CCN3)cc1)N1CCN(C(c2ccccc2)c2ccccc2)CC1 [Example 377, (4-Benzhydrylpiperazin-1-yl)-(4-{1-[5-chloro-2-(trifluoromethyl)benzyl]-1,2,3,4-tetrahydropyrido[2,3-b]pyrazin-7-yl}phenyl)methanone]
1000 to 10000	O=C(c1ccc(-c2cnc3c(c2)N(Cc2cc(Cl)ccc2C(F)(F)F)CCN3)cc1)N1CCC(Cc2ccccc2)CC1 [Example 378, (4-Benzylpiperidin-1-yl)-(4-{1-[5-chloro-2-(trifluoromethyl)benzyl]-1,2,3,4-tetrahydropyrido[2,3-b]pyrazin-7-yl}phenyl)methanone]
100 to 1000	O=C(c1ccc(-c2cnc3c(c2)N(Cc2cc(Cl)ccc2C(F)(F)F)CCN3)cc1)N1CCN(c2ccc(Cl)c(Cl)c2)CC1 [Example 379, (4-{1-[5-Chloro-2-(trifluoromethyl)benzyl]-1,2,3,4-tetrahydropyrido[2,3-b]pyrazin-7-yl}phenyl)-[4-(3,4-dichlorophenyl)piperazin-1-yl]methanone]
100 to 1000	O=C(c1ccc(-c2cnc3c(c2)N(Cc2cc(Cl)ccc2C(F)(F)F)CCN3)cc1)N1CCC2(CC1)C(=O)NCN2c1ccccc1 [Example 380, 8-(4-{1-[5-Chloro-2-(trifluoromethyl)benzyl]-1,2,3,4-tetrahydropyrido[2,3-b]pyrazin-7-yl}benzoyl)-1-phenyl-1,3,8-triaza-spiro[4.5]decan-4-one]
100 to 1000	O=C(c1ccc(-c2cnc3c(c2)N(Cc2cc(Cl)ccc2C(F)(F)F)CCN3)cc1)N1CCN(c2ccccc2C(F)(F)F)CC1 [Example 381, (4-{1-[5-Chloro-2-(trifluoromethyl)benzyl]-1,2,3,4-tetrahydropyrido[2,3-b]pyrazin-7-yl}phenyl)-{4-[2-(trifluoromethyl)phenyl]piperazin-1-yl}methanone]
100 to 1000	O=C(c1ccc(-c2cnc3c(c2)N(Cc2cc(Cl)ccc2C(F)(F)F)CCN3)cc1)N1CCN(c2ncnc3ccsc23)CC1 [Example 382, (4-{1-[5-Chloro-2-(trifluoromethyl)benzyl]-1,2,3,4-tetrahydropyrido[2,3-b]pyrazin-7-yl}phenyl)-(4-thieno[3,2-d]pyrimidin-4-yl-piperazin-1-yl)methanone]
100 to 1000	O=C(c1ccc(-c2cnc3c(c2)N(Cc2cc(Cl)ccc2C(F)(F)F)CCN3)cc1)N1CCN(Cc2ccc(Cl)cc2)CC1 [Example 383, [4-(4-Chlorobenzyl)piperazin-1-yl]-(4-{1-[5-chloro-2-(trifluoromethyl)benzyl]-1,2,3,4-tetrahydropyrido[2,3-b]pyrazin-7-yl}phenyl)methanone]
100 to 1000	COc1ccc(CN2CCN(C(=O)c3ccc(-c4cnc5c(c4)N(Cc4cc(Cl)ccc4C(F)(F)F)CCN5)cc3)CC2)cc1 [Example 384, (4-{1-[5-Chloro-2-(trifluoromethyl)benzyl]-1,2,3,4-tetrahydropyrido[2,3-b]pyrazin-7-yl}phenyl)-[4-(4-methoxybenzyl)piperazin-1-yl]methanone]
< 100	O=C(c1ccccc1)N1CCN(C(=O)c2ccc(-c3cnc4c(c3)N(Cc3cc(Cl)ccc3C(F)(F)F)CCN4)cc2)CC1 [Example 385, (4-Benzoylpiperazin-1-yl)-(4-{1-[5-chloro-2-(trifluoromethyl)benzyl]-1,2,3,4-tetrahydropyrido[2,3-b]pyrazin-7-yl}phenyl)methanone]
100 to 1000	O=C(c1ccc(-c2cnc3c(c2)N(Cc2cc(Cl)ccc2C(F)(F)F)CCN3)cc1)N1CCN(c2nccc3occc23)CC1 [Example 386, (4-{1-[5-Chloro-2-(trifluoromethyl)benzyl]-1,2,3,4-tetrahydropyrido[2,3-b]pyrazin-7-yl}phenyl)-(4-furo[3,2-c]pyridin-4-ylpiperazin-1-yl)methanone]
100 to 1000	O=C(c1ccc(-c2cnc3c(c2)N(Cc2cc(Cl)ccc2C(F)(F)F)CCN3)cc1)N1CCC(c2noc3cc(F)ccc23)CC1 [Example 387, (4-{1-[5-Chloro-2-(trifluoromethyl)benzyl]-1,2,3,4-tetrahydropyrido[2,3-b]pyrazin-7-yl}phenyl)-[4-(6-fluorobenzo[d]isoxazol-3-yl)-piperidin-1-yl]methanone]
100 to 1000	O=C(NCCc1ccccn1)c1ccc(-c2cnc3c(c2)N(Cc2cc(Cl)ccc2C(F)(F)F)CCN3)cc1 [Example 388, 4-{1-[5-Chloro-2-(trifluoromethyl)benzyl]-1,2,3,4-tetrahydropyrido[2,3-b]pyrazin-7-yl}-N-(2-pyridin-2-yl-ethyl)benzamide]
100 to 1000	CCOC(=O)N1CCC(NC(=O)c2ccc(-c3cnc4c(c3)N(Cc3cc(Cl)ccc3C(F)(F)F)CCN4)cc2)CC1 [Example 389, 4-(4-{1-[5-Chloro-2-(trifluoromethyl)benzyl]-1,2,3,4-tetrahydropyrido[2,3-b]pyrazin-7-yl}benzoylamino)piperidine-1-carboxylic acid ethyl ester]
100 to 1000	O=C(NC1CCN(Cc2ccccc2)CC1)c1ccc(-c2cnc3c(c2)N(Cc2cc(Cl)ccc2C(F)(F)F)CCN3)cc1 [Example 390, N-(1-Benzylpiperidin-4-yl)-4-{1-[5-chloro-2-(trifluoromethyl)benzyl]-1,2,3,4-tetrahydropyrido[2,3-b]pyrazin-7-yl}benzamide]
100 to 1000	O=C(NCC(c1ccccc1)c1ccccc1)c1ccc(-c2cnc3c(c2)N(Cc2cc(Cl)ccc2C(F)(F)F)CCN3)cc1 [Example 391, 4-{1-[5-Chloro-2-(trifluoromethyl)benzyl]-1,2,3,4-tetrahydropyrido[2,3-b]pyrazin-7-yl}-N-(2,2-diphenylethyl)benzamide]
< 100	CC(=O)N1CCN(C(=O)c2ccc(-c3cnc4c(c3)N(Cc3cc(Cl)ccc3C(F)(F)F)CCN4)cc2)CC1 [Example 392, 1-[4-(4-{1-[5-Chloro-2-(trifluoromethyl)benzyl]-1,2,3,4-tetrahydropyrido[2,3-b]pyrazin-7-yl}benzoyl)piperazin-1-yl]ethanone]
< 100	CN1CCC(NC(=O)c2ccc(-c3cnc4c(c3)N(Cc3cc(Cl)ccc3C(F)(F)F)CCN4)cc2)CC1 [Example 393, 4-{1-[5-Chloro-2-(trifluoromethyl)benzyl]-1,2,3,4-tetrahydropyrido[2,3-b]pyrazin-7-yl}-N-(1-methylpiperidin-4-yl)benzamide]
< 100	O=C(c1ccc(-c2cnc3c(c2)N(Cc2cc(Cl)ccc2C(F)(F)F)CCN3)cc1)N1CCN(CCc2ccccn2)CC1 [Example 394, (4-{1-[5-Chloro-2-(trifluoromethyl)benzyl]-1,2,3,4-tetrahydropyrido[2,3-b]pyrazin-7-yl}phenyl)-[4-(2-pyridin-2-yl-ethyl)piperazin-1-yl]methanone]
100 to 1000	O=C(NCc1ccc(OC(F)(F)F)cc1)c1ccc(-c2cnc3c(c2)N(Cc2cc(Cl)ccc2C(F)(F)F)CCN3)cc1 [Example 395, 4-{1-[5-Chloro-2-(trifluoromethyl)benzyl]-1,2,3,4-tetrahydropyrido[2,3-b]pyrazin-7-yl}-N-[4-(trifluoromethoxy)benzyl]benzamide]
100 to 1000	O=C(NCc1ccc(C(F)(F)F)cc1)c1ccc(-c2cnc3c(c2)N(Cc2cc(Cl)ccc2C(F)(F)F)CCN3)cc1 [Example 396, 4-{1-[5-Chloro-2-(trifluoromethyl)benzyl]-1,2,3,4-tetrahydropyrido[2,3-b]pyrazin-7-yl}-N-[4-(trifluoromethyl)benzyl]benzamide]
100 to 1000	O=C(NCc1cc(C(F)(F)F)cc(C(F)(F)F)c1)c1ccc(-c2cnc3c(c2)N(Cc2cc(Cl)ccc2C(F)(F)F)CCN3)cc1 [Example 397, N-[3,5-Bis(trifluoromethyl)benzyl]-4-{1-[5-Chloro-2-(trifluoromethyl)benzyl]-1,2,3,4-tetrahydropyrido[2,3-b]pyrazin-7-yl}benzamide]
100 to 1000	O=C(NCCc1cccs1)c1ccc(-c2cnc3c(c2)N(Cc2cc(Cl)ccc2C(F)(F)F)CCN3)cc1 [Example 398, 4-{1-[5-Chloro-2-(trifluoromethyl)benzyl]-1,2,3,4-tetrahydropyrido[2,3-b]pyrazin-7-yl}-N-(2-thiophen-2-yl-ethyl)benzamide]
1000 to 10000	O=C(NC(c1ccccc1)c1ccccc1)c1ccc(-c2cnc3c(c2)N(Cc2cc(Cl)ccc2C(F)(F)F)CCN3)cc1 [Example 399, N-Benzhydryl-4-{1-[5-chloro-2-(trifluoromethyl)benzyl]-1,2,3,4-tetrahydropyrido[2,3-b]pyrazin-7-yl}benzamide]
100 to 1000	O=C(NCc1ccncc1)c1ccc(-c2cnc3c(c2)N(Cc2cc(Cl)ccc2C(F)(F)F)CCN3)cc1 [Example 400, 4-{1-[5-Chloro-2-(trifluoromethyl)benzyl]-1,2,3,4-tetrahydropyrido[2,3-b]pyrazin-7-yl}-N-pyridin-4-ylmethylbenzamide]
100 to 1000	O=C(NCc1cccnc1)c1ccc(-c2cnc3c(c2)N(Cc2cc(Cl)ccc2C(F)(F)F)CCN3)cc1 [Example 401, 4-{1-[5-Chloro-2-(trifluoromethyl)benzyl]-1,2,3,4-tetrahydropyrido[2,3-b]pyrazin-7-yl}-N-pyridin-3-ylmethylbenzamide]
< 100	CC(C)NC(=O)CN1CCN(C(=O)c2ccc(-c3cnc4c(c3)N(Cc3cc(Cl)ccc3C(F)(F)F)CCN4)cc2)CC1 [Example 402, 2-[4-(4-{1-[5-Chloro-2-(trifluoromethyl)benzyl]-1,2,3,4-tetrahydropyrido[2,3-b]pyrazin-7-yl}benzoyl)piperazin-1-yl]-N-isopropylacetamide]
